The first data set addresses T1, Class 1 phosphodiesterase PDEB1 (Trypanosoma brucei) (UniProt Q8WQX9).
T1 sequence (whole entry): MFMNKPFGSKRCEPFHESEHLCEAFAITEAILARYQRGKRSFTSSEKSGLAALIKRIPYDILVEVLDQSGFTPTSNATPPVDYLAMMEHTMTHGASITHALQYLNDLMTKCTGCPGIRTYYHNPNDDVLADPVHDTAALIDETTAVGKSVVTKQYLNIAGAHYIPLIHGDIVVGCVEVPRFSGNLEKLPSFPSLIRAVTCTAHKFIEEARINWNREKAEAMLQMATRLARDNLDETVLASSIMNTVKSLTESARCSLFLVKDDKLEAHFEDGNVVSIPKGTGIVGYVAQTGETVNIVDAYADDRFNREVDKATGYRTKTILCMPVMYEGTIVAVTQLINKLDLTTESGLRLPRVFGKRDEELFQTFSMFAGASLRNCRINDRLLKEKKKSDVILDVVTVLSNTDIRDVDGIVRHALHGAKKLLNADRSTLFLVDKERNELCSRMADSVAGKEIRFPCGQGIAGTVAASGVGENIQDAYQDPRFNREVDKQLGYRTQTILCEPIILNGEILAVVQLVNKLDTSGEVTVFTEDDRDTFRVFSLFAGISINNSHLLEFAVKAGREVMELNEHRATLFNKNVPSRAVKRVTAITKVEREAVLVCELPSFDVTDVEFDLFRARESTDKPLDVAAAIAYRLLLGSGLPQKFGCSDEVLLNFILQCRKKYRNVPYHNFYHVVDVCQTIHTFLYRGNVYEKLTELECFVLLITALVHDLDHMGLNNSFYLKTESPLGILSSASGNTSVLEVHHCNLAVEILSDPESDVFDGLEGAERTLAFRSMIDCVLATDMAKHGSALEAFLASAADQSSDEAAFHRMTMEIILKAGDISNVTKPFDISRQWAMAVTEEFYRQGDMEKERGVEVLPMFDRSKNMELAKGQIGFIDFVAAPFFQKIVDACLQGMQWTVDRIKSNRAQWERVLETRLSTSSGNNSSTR
The experiment in a line: Inhibition of Trypanosoma brucei PDEB1 at 100 uM.
With `CCCc1nn(C)c2c(=O)[nH]c(-c3ncccc3C)nc12`, the inhibition came to 72.1%.

Consider `CCCc1nn(C)c2c(=O)[nH]c(-c3oc(C)nc3C)nc12`, for which the inhibition stood at 29%.

In turn, `CCCc1n[nH]c2c(=O)[nH]c(-c3cc(S(=O)(=O)N4CCN(C)CC4)ccc3OCC)nc12` came in with an inhibition of 16%.

`CCCc1nn(C)c2c(=O)[nH]c(-c3cccnc3OC)nc12` displayed an inhibition of 77.2%.

As to `CCCc1nn(C)c2c(=O)[nH]c(-c3ccoc3)nc12`, the inhibition stood at 13.8%.

For `CCCc1nn(C)c2c(=O)[nH]c(-c3snnc3C)nc12`, the inhibition was 16.3%.

In the case of `CCCc1nn(C)c2c(=O)[nH]c(-c3cnc(C)cn3)nc12`, the inhibition was 30%.

Turning to `CCCc1nn(C)c2c(=O)[nH]c(-c3ccccc3OCC)nc12`, the inhibition is 21.8%.

As for `CCCc1nn(C)c2c(=O)[nH]c(-c3cn(C)cn3)nc12`, the inhibition turned out to be 5.3%.

In turn, `CCOc1ccc(S(=O)(=O)N2CCN(C)CC2)cc1-c1nc2c(-c3ccccc3)n[nH]c2c(=O)[nH]1` showed an inhibition of 70.9%.

Regarding `CCCc1nn(C)c2c(=O)[nH]c(-c3cn(C)nc3C)nc12`, the inhibition came out at 7.2%.

`CCCc1nn(C)c2c(=O)[nH]c(-c3ccc(=O)[nH]n3)nc12` had an inhibition of 11.1%.

On to `CCCc1nn(C)c2c(=O)[nH]c(-c3cccnc3OC(C)C)nc12`, for which the inhibition came out at 53.8%.

For the molecule `CCOc1ccc(S(=O)(=O)N2CCN(C)CC2)cc1-c1nc2cnn(C)c2c(=O)[nH]1`, the inhibition worked out at 13.6%.

Regarding `CCOc1ccccc1-c1nc2c(-c3ccccc3)nn(CC(N)=O)c2c(=O)[nH]1`, the inhibition was 7%.

Take `CCCc1nn(C)c2c(=O)[nH]c(-c3cnccn3)nc12`: the inhibition was determined as 6.5%.

`CCCc1nn(C)c2c(=O)[nH]c(-c3nnco3)nc12` had an inhibition of 3.2%.

Regarding `CCCc1nn(C)c2c(=O)[nH]c(-c3nccnc3N)nc12`, the inhibition was 14.1%.

As for `CCCc1nn(C)c2c(=O)[nH]c(-c3cccc(S(=O)(=O)N4CCN(C)CC4)c3)nc12`, the inhibition is 8.4%.

The molecule `CCCc1nn(C)c2c(=O)[nH]c(-c3cccnc3OCC)nc12` had an inhibition of 41.5%.

`CCOc1ccc(S(=O)(=O)N2CCN(C)CC2)cc1-c1nc2c(-c3ccccc3)nn(C)c2c(=O)[nH]1`: the inhibition amounted to 17.5%.

`CCCc1nn(C)c2c(=O)[nH]c(-c3cccnc3O)nc12` showed an inhibition of 22.5%.

In turn, `CCCc1nn(C)c2c(=O)[nH]c(-c3cscn3)nc12` gave an inhibition of 25.4%.

Molecule `CCCc1nn(-c2cccnc2)c2c(=O)[nH]c(-c3cc(S(=O)(=O)N4CCN(C)CC4)ccc3OCC)nc12` registered an inhibition of 32.4%.

In turn, `CCCc1nn(C)c2c(=O)[nH]c(-c3cc(S(=O)(=O)N4CCN(C)CC4)ccc3OCC)nc12` returned an inhibition of 51.5%.

`CCCc1nn(C)c2c(=O)[nH]c(-c3ccc(O)cc3)nc12` had an inhibition of 24%.

Turning to `CCOc1ccccc1-c1nc2c(-c3ccccc3)n[nH]c2c(=O)[nH]1`, the inhibition worked out at 22.9%.

System in another data set: not listed separately
The experiment in a line: Solubility of the compound in 10% DMSO. Format: physicochemical.
As to `CCOc1ccc(S(=O)(=O)N2CCN(C)CC2)cc1-c1nc2c(C)nn(C)c2c(=O)[nH]1`, the solubility entry is “Insoluble”.

As for `CCCc1nn(C)c2c(=O)[nH]c(-c3ccnn3C)nc12`, the solubility result is listed as “Insoluble”.

With `CCCc1nn(C)c2c(=O)[nH]c(-c3ccsc3)nc12`, the solubility result is “Insoluble”.

Turning to `CCCc1n[nH]c2c(O)nc(-c3ccccc3OCC)nc12`, the solubility result is given as “Insoluble”.

Regarding `CCOc1ccccc1-c1nc2c(-c3ccccc3)nn(-c3cccnc3)c2c(=O)[nH]1`, the solubility result was “Insoluble”.

Take `CCOc1ccccc1-c1nc2c(-c3ccccc3)nn(-c3ccccc3)c2c(=O)[nH]1`: the solubility entry is given as “Insoluble”.

These data come from ChEMBL document CHEMBL2016513, “Synthesis and evaluation of human phosphodiesterases (PDE) 5 inhibitor analogs as trypanosomal PDE inhibitors. Part 1. Sildenafil analogs” (Bioorg Med Chem Lett, 2012).
